# Tests used:
# [1] = target: T1, human mGlu2 (Homo sapiens, UniProt Q14416); assay: [3H]-compound A displacement binding, human mGlu2 HEK293 membranes; details: Glu2 HEK293, 6 nM [3H]-compound A
# T1 construct: expressed in transfected cells; host or cells: HEK293
# Protocol: (§1) For [^3H]-compound A (a NAM compound, selective for mGlu2/3 (˜20 fold selective for 2 over 3) vs other mGluRs) binding, membranes from human mGlu2 and mGlu3 HEK293 cells, and also rat cortical membranes, were used. After thawing, membranes were homogenized using an Ultra Turrax homogenizer and suspended in ice-cold binding buffer containing 50 mM Tris-HCl (pH 7.4), 10 mM MgCl2, 2 mM CaCl2. Displacement studies were done using 6 nM of radioligand, except for human mGlu3 membranes where 25 nM was used. Assay mixtures were incubated for 60 min at RT in a volume of 0.5 ml containing […] or 75 μg membrane protein of human mGlu2, human mGlu3 or rat cortex, respectively. Non-specific binding was estimated in the presence of […] compound B (a NAM with IC50˜10 nM against hmGlu2 and IC50˜200 nM against hmGlu3). Filtration was performed using Whatman GF/C filter sheets pre-soaked in 0.1% PEI and a Brandell harvester 96.
# (§2) Filters from filters sheets were punched into vials. After the addition of scintillation liquid, radioactivity on the filters was counted in a Liquid Scintillation Analyzer from Perkin Elmer.
# (§3) Radioligand competition binding data were calculated as percentage of total binding measured in the absence of test compound. Inhibition curves, plotting percentage of total binding versus the log concentration of the test compound, were generated using the Lexis software. Sigmoid inhibition curves were analyzed using non-linear regression analysis.
# [2] = target: T2, human mGlu3 (Homo sapiens, UniProt Q14832); assay: [3H]-compound A displacement binding, human mGlu3 HEK293 membranes; details: Glu3 HEK293, 25 nM [3H]-compound A
# T2 construct: expressed in transfected cells; host or cells: HEK293
# T2 sequence (Q14832 23-879): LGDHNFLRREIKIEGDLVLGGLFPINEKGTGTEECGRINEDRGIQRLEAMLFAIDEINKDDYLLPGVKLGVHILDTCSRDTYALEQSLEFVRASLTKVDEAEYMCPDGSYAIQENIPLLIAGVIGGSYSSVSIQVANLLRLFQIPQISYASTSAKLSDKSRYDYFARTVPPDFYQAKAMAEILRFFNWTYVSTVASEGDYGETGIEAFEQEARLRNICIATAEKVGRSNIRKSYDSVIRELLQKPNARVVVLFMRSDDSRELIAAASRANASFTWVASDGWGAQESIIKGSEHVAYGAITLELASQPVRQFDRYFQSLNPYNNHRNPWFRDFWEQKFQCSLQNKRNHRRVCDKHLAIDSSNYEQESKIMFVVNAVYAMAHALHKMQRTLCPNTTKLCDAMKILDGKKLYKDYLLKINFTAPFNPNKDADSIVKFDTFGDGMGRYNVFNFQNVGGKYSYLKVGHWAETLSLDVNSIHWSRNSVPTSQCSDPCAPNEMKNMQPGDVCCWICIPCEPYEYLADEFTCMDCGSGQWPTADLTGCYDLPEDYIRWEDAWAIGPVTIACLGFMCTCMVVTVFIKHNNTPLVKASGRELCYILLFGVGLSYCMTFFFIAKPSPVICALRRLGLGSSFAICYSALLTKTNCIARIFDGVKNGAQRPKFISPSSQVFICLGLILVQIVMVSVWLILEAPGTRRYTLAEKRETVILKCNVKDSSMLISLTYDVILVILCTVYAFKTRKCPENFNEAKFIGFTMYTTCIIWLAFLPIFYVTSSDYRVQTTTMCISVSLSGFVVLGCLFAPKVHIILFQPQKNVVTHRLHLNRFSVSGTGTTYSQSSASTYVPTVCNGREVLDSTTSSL
# Protocol: as §1, §2, §3
# [3] = Ex-vivo biodistribution in SD rats; design: species or system Sprague Dawley rats
# Protocol: (§4) Sprague-Dawley rats obtained from Harlan (the Netherlands), were housed in groups of four to six per cage until treatment. They were kept at a constant temperature of 21° C. and at a 12-h light/dark cycle, in which lights were switched on at 8:00 a.m. Animals had unrestricted access to food (Teklad Global 16% Protein Rodent Diet, Harlan, Madison, Wis., USA) and water. All animal experiments were performed in compliance with Belgium laws on animal experimentation and after approval by the local animal ethics committee.
# (§5) The biodistribution of [^18F]-1 was determined at 2, 10, 30 and 60 min, after injection in Sprague Dawley (SD) rats (n=3 per time point) while for [^18F]-2 the 30 min time point was not performed. Rats were injected intravenously with 0.7-1.1 MBq via a tail vein and euthanized at the time points indicated above, under isoflurane anesthesia. All tissues were dissected, weighed and counted for radioactivity in a gamma counter.
# as §5, with “Dawley” for “Dawley (SD)”, “point).” for “point) while for [^18F]-2 the 30 min time point was not performed.”
# [4] = test system: mGluR2/3; assay: microPET scan, baseline and after compound A pretreatment; assay type: in vivo; details: SD rats
# Protocol: Data were acquired in a 128×128×95 matrix with a pixel width of 0.475 mm and a slice thickness of 0.796 mm. During PET imaging, rats were kept under gas anesthesia (2.5% isoflurane in oxygen at a flow rate of 1 l/min), and their body temperature was maintained between 36.5 and 37° C. using a heating pad. PET data were analyzed using Pmod software version 3.2 (Pmod, Zurich Switzerland).
# as §4
# All pretreatment solutions were 1 mg/mL solutions in 20% β-cyclodextrine in saline with a pH ranging between 6 and 8, and sterile filtered over a Millex GV filter prior to use.
# For the baseline scan, 36-43 MBq of [^18F]-1 was injected in 3 SD rats weighing 229-251 g in the tail vein, and scanned simultaneously during a 90 min dynamic PET scan. For the pretreatment scan using compound A (a NAM compound, selective for mGlu2/3 (˜20 fold selective for 2 over 3) vs other mGluRs), the same animals were injected with 10 mg/kg compound A s.c. 60 minutes prior to injection of 38-37 MBq [^18F]-1 in the tail vein, and scanned simultaneously during a 90 minutes dynamic PET scan.
# For the baseline scan, 39-49 MBq of [^18F]-2 was injected in 3 SD rats weighing 301-310 g in a tail vein, and scanned simultaneously during a 90-min dynamic PET scan. For the pretreatment scan using compound A, the same animals were injected with 10 mg/kg compound A s.c. 60 min prior to injection of 46-50 MBq [^18F]-2 in the tail vein, and scanned simultaneously during a 90 min dynamic PET scan.
# T1 sequence (Q14416 19-872): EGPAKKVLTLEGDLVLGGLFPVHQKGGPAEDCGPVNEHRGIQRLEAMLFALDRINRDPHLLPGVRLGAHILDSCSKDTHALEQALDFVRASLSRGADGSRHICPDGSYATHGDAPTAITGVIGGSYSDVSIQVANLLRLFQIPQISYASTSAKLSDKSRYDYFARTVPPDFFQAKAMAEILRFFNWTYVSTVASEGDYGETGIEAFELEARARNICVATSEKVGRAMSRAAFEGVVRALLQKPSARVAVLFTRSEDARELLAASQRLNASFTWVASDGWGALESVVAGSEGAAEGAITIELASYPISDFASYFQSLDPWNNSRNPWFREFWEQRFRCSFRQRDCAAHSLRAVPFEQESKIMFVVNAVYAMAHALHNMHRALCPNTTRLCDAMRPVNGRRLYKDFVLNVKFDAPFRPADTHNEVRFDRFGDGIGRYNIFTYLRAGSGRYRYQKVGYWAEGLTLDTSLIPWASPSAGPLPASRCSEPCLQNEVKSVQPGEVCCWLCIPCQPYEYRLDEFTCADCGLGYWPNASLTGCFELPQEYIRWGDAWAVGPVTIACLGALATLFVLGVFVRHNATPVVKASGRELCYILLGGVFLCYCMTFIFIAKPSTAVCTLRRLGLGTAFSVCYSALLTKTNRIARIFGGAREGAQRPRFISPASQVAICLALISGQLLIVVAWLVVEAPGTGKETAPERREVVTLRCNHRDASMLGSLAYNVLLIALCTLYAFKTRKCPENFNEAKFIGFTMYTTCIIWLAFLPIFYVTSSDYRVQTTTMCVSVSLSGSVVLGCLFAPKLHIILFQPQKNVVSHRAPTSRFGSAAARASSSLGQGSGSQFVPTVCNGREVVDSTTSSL
compound,measurement,setting,value
C[C@H]1CN(c2ccc(C(F)(F)F)c(C[18F])c2)C(=O)c2c(C#Cc3ccc(N)nc3)cnn21 [Compound 2],Eff Curve,[1],94
same,IC50,[1],2.82 nM
same,Eff Curve,[2],107.5
same,IC50,[2],4.37 nM
same,"Biodistribution, mean SUV","[3]; blood, 2 min after i.v. injection",0.96 SUV
same,"Biodistribution, mean SUV","[3]; blood, 10 min after i.v. injection",0.92 SUV
same,"Biodistribution, mean SUV","[3]; blood, 60 min after i.v. injection",0.67 SUV
same,"Biodistribution, mean SUV","[3]; bone, 2 min after i.v. injection",0.53 SUV
same,"Biodistribution, mean SUV","[3]; bone, 10 min after i.v. injection",0.62 SUV
same,"Biodistribution, mean SUV","[3]; bone, 60 min after i.v. injection",2.77 SUV
same,"Biodistribution, mean SUV","[3]; cerebellum, 2 min after i.v. injection",1.53 SUV
same,"Biodistribution, mean SUV","[3]; cerebellum, 10 min after i.v. injection",1.23 SUV
same,"Biodistribution, mean SUV","[3]; cerebellum, 60 min after i.v. injection",0.73 SUV
same,"Biodistribution, mean SUV","[3]; cerebrum + cerebellum, 2 min after i.v. injection",1.44 SUV
same,"Biodistribution, mean SUV","[3]; cerebrum + cerebellum, 10 min after i.v. injection",1.34 SUV
same,"Biodistribution, mean SUV","[3]; cerebrum + cerebellum, 60 min after i.v. injection",0.89 SUV
same,"Biodistribution, mean SUV","[3]; cortex, 2 min after i.v. injection",2.50 SUV
same,"Biodistribution, mean SUV","[3]; cortex, 10 min after i.v. injection",2.51 SUV
same,"Biodistribution, mean SUV","[3]; cortex, 60 min after i.v. injection",1.56 SUV
same,"Brain uptake, in words",[3]; ex-vivo biodistribution,medium brain uptake
same,Defluorination judged from bone uptake over time,[3]; ex-vivo biodistribution,massive defluorination
same,"Peripheral uptake, in words",[3]; ex-vivo biodistribution,high uptake in the liver
same,"Biodistribution, mean SUV","[3]; heart, 2 min after i.v. injection",2.42 SUV
same,"Biodistribution, mean SUV","[3]; heart, 10 min after i.v. injection",1.67 SUV
same,"Biodistribution, mean SUV","[3]; heart, 60 min after i.v. injection",0.82 SUV
same,"Biodistribution, mean SUV","[3]; hippocampus, 2 min after i.v. injection",1.03 SUV
same,"Biodistribution, mean SUV","[3]; hippocampus, 10 min after i.v. injection",1.17 SUV
same,"Biodistribution, mean SUV","[3]; hippocampus, 60 min after i.v. injection",0.74 SUV
same,"Biodistribution, mean SUV","[3]; kidneys, 2 min after i.v. injection",4.05 SUV
same,"Biodistribution, mean SUV","[3]; kidneys, 10 min after i.v. injection",2.73 SUV
same,"Biodistribution, mean SUV","[3]; kidneys, 60 min after i.v. injection",1.81 SUV
same,"Biodistribution, mean SUV","[3]; liver, 2 min after i.v. injection",8.44 SUV
same,"Biodistribution, mean SUV","[3]; liver, 10 min after i.v. injection",6.22 SUV
same,"Biodistribution, mean SUV","[3]; liver, 60 min after i.v. injection",2.83 SUV
same,"Biodistribution, mean SUV","[3]; lungs, 2 min after i.v. injection",2.66 SUV
same,"Biodistribution, mean SUV","[3]; lungs, 10 min after i.v. injection",1.52 SUV
same,"Biodistribution, mean SUV","[3]; lungs, 60 min after i.v. injection",1.02 SUV
same,"Biodistribution, mean SUV","[3]; muscle, 2 min after i.v. injection",0.88 SUV
same,"Biodistribution, mean SUV","[3]; muscle, 10 min after i.v. injection",0.82 SUV
same,"Biodistribution, mean SUV","[3]; muscle, 60 min after i.v. injection",0.59 SUV
same,"Biodistribution, mean SUV","[3]; pancreas, 2 min after i.v. injection",3.29 SUV
same,"Biodistribution, mean SUV","[3]; pancreas, 10 min after i.v. injection",2.06 SUV
same,"Biodistribution, mean SUV","[3]; pancreas, 60 min after i.v. injection",1.27 SUV
same,"Biodistribution, mean SUV","[3]; pons, 2 min after i.v. injection",1.04 SUV
same,"Biodistribution, mean SUV","[3]; pons, 10 min after i.v. injection",0.74 SUV
same,"Biodistribution, mean SUV","[3]; pons, 60 min after i.v. injection",0.40 SUV
same,"Biodistribution, mean SUV","[3]; rest of cerebrum, 2 min after i.v. injection",1.45 SUV
same,"Biodistribution, mean SUV","[3]; rest of cerebrum, 10 min after i.v. injection",1.39 SUV
same,"Biodistribution, mean SUV","[3]; rest of cerebrum, 60 min after i.v. injection",0.97 SUV
same,"Biodistribution, mean SUV","[3]; spleen, 2 min after i.v. injection",2.53 SUV
same,"Biodistribution, mean SUV","[3]; spleen, 10 min after i.v. injection",1.36 SUV
same,"Biodistribution, mean SUV","[3]; spleen, 60 min after i.v. injection",0.87 SUV
same,"Biodistribution, mean SUV","[3]; striatum, 2 min after i.v. injection",1.51 SUV
same,"Biodistribution, mean SUV","[3]; striatum, 10 min after i.v. injection",1.61 SUV
same,"Biodistribution, mean SUV","[3]; striatum, 60 min after i.v. injection",1.30 SUV
same,"Biodistribution, mean SUV","[3]; whole cerebrum, 2 min after i.v. injection",1.39 SUV
same,"Biodistribution, mean SUV","[3]; whole cerebrum, 10 min after i.v. injection",1.34 SUV
same,"Biodistribution, mean SUV","[3]; whole cerebrum, 60 min after i.v. injection",0.90 SUV
same,Brain uptake after pretreatment with compound A,[4]; 10 mg/kg compound A s.c. 60 min before tracer,"peak uptake was higher after pretreatment, but generally showed a faster washout"
same,"Brain uptake in PET scan, in words",[4]; 90 min dynamic PET scan,high brain uptake
same,mGluR2/3 specificity of binding in vivo,"[4]; PET, baseline vs compound A pretreatment",mGluR2/3 specific binding
C[C@H]1CN(c2ccc(C(F)(F)F)cc2)C(=O)c2c(C#Cc3cnc(N)cc3CO)cnn21 [Compound P-1],melting point,,211.51 °C
C[C@H]1CN(c2ccc(C(F)(F)F)c(CO)c2)C(=O)c2c(C#Cc3ccc(N)nc3)cnn21 [Compound P-3],melting point,,153.23 °C
C[C@H]1CN(c2ccc(C(F)(F)F)cc2)C(=O)c2c(C#Cc3cnc(N)cc3CF)cnn21 [[^19F]-1],melting point,,187.28 °C
